Data: ChEMBL document CHEMBL4715742, “Design, synthesis and cytotoxic activities of novel 2,5-diketopiperazine derivatives” (Eur J Med Chem, 2016)

Legend:
HL-60 = test: Cytotoxicity against human HL-60 cells assessed as reduction in cell viability measured after 72 hrs by CCK8 assay; assay type: functional, cell-based; details: Homo sapiens, HL-60, 72 h; read-out: IC50
K562 [1] = test: Cytotoxicity against human K562 cells assessed as cell viability at 1.1 uM measured after 72 hrs by CCK8 assay relative to control; assay type: functional; details: read-out: Activity
K562 [2] = test: Cytotoxicity against human K562 cells assessed as cell viability at 1.1 uM measured after 24 hrs by CCK8 assay relative to control; assay type: functional; details: read-out: Activity
K562 [3] = test: Cytotoxicity against human K562 cells assessed as cell viability at 0.37 uM measured after 72 hrs by CCK8 assay relative to control; assay type: functional; details: read-out: Activity
U-937 [4] = test: Induction of apoptosis in human U-937 cells assessed as early apoptotic cells at 2 uM measured after 24 hrs by annexinV/FITC-propidium iodide staining based flow cytometry (reference value: 1.28 to 1.68 %); assay type: functional
U-937 [5] = test: Induction of apoptosis in human U-937 cells assessed as apoptotic ratio at 0.5 uM measured after 48 hrs by annexinV/FITC-propidium iodide staining based flow cytometry (reference value: 5.2 +/- 0.2 %); assay type: functional
U-937 [6] = test: Induction of apoptosis in human U-937 cells assessed as early apoptotic cells at 0.5 uM measured after 24 hrs by annexinV/FITC-propidium iodide staining based flow cytometry (reference value: 1.28 to 1.68 %); assay type: functional
U-937 [7] = test: Induction of apoptosis in human U-937 cells assessed as apoptotic ratio at 1 uM measured after 24 hrs by annexinV/FITC-propidium iodide staining based flow cytometry (reference value: 3.7 +/- 0.3 %); assay type: functional
DU-145 = test: Cytotoxicity against human DU-145 cells assessed as reduction in cell viability measured after 72 hrs by CCK8 assay; assay type: functional, cell-based; details: Homo sapiens, DU-145, 72 h; read-out: IC50
U-937 [8] = test: Cytotoxicity against human U-937 cells assessed as cell viability at 3.3 uM measured after 48 hrs by CCK8 assay relative to control; assay type: functional; details: read-out: Activity
U-937 [9] = test: Cytotoxicity against human U-937 cells assessed as cell viability at 0.37 uM measured after 72 hrs by CCK8 assay relative to control; assay type: functional; details: read-out: Activity
U-937 [10] = test: Induction of apoptosis in human U-937 cells assessed as necrotic cells at 1 uM measured after 48 hrs by annexinV/FITC-propidium iodide staining based flow cytometry (reference value: 0.794 to 0.955 %); assay type: functional
K562 [11] = test: Cytotoxicity against human K562 cells assessed as reduction in cell viability at 0.37 to 3.3 uM by CCK8 assay; assay type: functional, cell-based; details: dose 0.37-3.3 µM, time 24-72 hrs, TDE = time-dependent effect
U-937 [12] = test: Induction of apoptosis in human U-937 cells assessed as apoptotic ratio at 1 uM measured after 48 hrs by annexinV/FITC-propidium iodide staining based flow cytometry (reference value: 5.2 +/- 0.2 %); assay type: functional
U-937 [13] = test: Induction of apoptosis in human U-937 cells assessed as late apoptotic cells at 1 uM measured after 48 hrs by annexinV/FITC-propidium iodide staining based flow cytometry (reference value: 3.27 to 3.41 %); assay type: functional
U-937 [14] = test: Cytotoxicity against human U-937 cells assessed as cell viability at 1.1 uM measured after 24 hrs by CCK8 assay relative to control; assay type: functional; details: read-out: Activity
K562 [15] = test: Cytotoxicity against human K562 cells assessed as cell viability at 1.1 uM measured after 48 hrs by CCK8 assay relative to control; assay type: functional; details: read-out: Activity
A549 = test: Cytotoxicity against human A549 cells assessed as reduction in cell viability measured after 72 hrs by CCK8 assay; assay type: functional, cell-based; details: Homo sapiens, A549, 72 h; read-out: IC50
U-937 [16] = test: Induction of apoptosis in human U-937 cells assessed as necrotic cells at 0.5 uM measured after 48 hrs by annexinV/FITC-propidium iodide staining based flow cytometry (reference value: 0.794 to 0.955 %); assay type: functional
U-937 [17] = test: Induction of apoptosis in human U-937 cells assessed as late apoptotic cells at 2 uM measured after 24 hrs by annexinV/FITC-propidium iodide staining based flow cytometry (reference value: 2.18 to 2.22 %); assay type: functional
U-937 [18] = test: Induction of apoptosis in human U-937 cells assessed as late apoptotic cells at 0.5 uM measured after 24 hrs by annexinV/FITC-propidium iodide staining based flow cytometry (reference value: 2.18 to 2.22 %); assay type: functional
U-937 [19] = test: Cytotoxicity against human U-937 cells assessed as cell viability at 0.37 uM measured after 48 hrs by CCK8 assay relative to control; assay type: functional; details: read-out: Activity
K562 [20] = test: Cytotoxicity against human K562 cells assessed as reduction in cell viability measured after 72 hrs by CCK8 assay; assay type: functional, cell-based; details: Homo sapiens, K562, 72 h; read-out: IC50
U-937 [21] = test: Cytotoxicity against human U-937 cells assessed as reduction in cell viability at 0.37 to 3.3 uM by CCK8 assay; assay type: functional, cell-based; details: dose 0.37-3.3 µM, TDE = time-dependent effect
U-937 [22] = test: Induction of apoptosis in human U-937 cells assessed as late apoptotic cells at 0.5 uM measured after 48 hrs by annexinV/FITC-propidium iodide staining based flow cytometry (reference value: 3.27 to 3.41 %); assay type: functional
K562 [23] = test: Cytotoxicity against human K562 cells assessed as cell viability at 0.37 uM measured after 24 hrs by CCK8 assay relative to control; assay type: functional; details: read-out: Activity
U-937 [24] = test: Induction of apoptosis in human U-937 cells assessed as viable cells at 2 uM measured after 24 hrs by annexinV/FITC-propidium iodide staining based flow cytometry (reference value: 95 to 95.1 %); assay type: functional; details: read-out: Activity
U-937 [25] = test: Induction of apoptosis in human U-937 cells assessed as viable cells at 0.5 uM measured after 24 hrs by annexinV/FITC-propidium iodide staining based flow cytometry (reference value: 95 to 95.1 %); assay type: functional; details: read-out: Activity
U-937 [26] = test: Cytotoxicity against human U-937 cells assessed as cell viability at 3.3 uM measured after 72 hrs by CCK8 assay relative to control; assay type: functional; details: read-out: Activity
U-937 [27] = test: Cytotoxicity against human U-937 cells assessed as reduction in cell viability measured after 72 hrs by CCK8 assay; assay type: functional, cell-based; details: Homo sapiens, U-937, 72 h; read-out: IC50
U-937 [28] = test: Induction of apoptosis in human U-937 cells assessed as viable cells at 0.5 uM measured after 48 hrs by annexinV/FITC-propidium iodide staining based flow cytometry (reference value: 93.7 to 94.2 %); assay type: functional; details: read-out: Activity
U-937 [29] = test: Induction of apoptosis in human U-937 cells assessed as necrotic cells at 2 uM measured after 48 hrs by annexinV/FITC-propidium iodide staining based flow cytometry (reference value: 0.794 to 0.955 %); assay type: functional
U-937 [30] = test: Induction of apoptosis in human U-937 cells assessed as apoptotic ratio at 0.5 uM measured after 24 hrs by annexinV/FITC-propidium iodide staining based flow cytometry (reference value: 3.7 +/- 0.3 %); assay type: functional
U-937 [31] = test: Induction of apoptosis in human U-937 cells assessed as viable cells at 1 uM measured after 48 hrs by annexinV/FITC-propidium iodide staining based flow cytometry (reference value: 93.7 to 94.2 %); assay type: functional; details: read-out: Activity
U-937 [32] = test: Cytotoxicity against human U-937 cells assessed as reduction in cell viability measured after 24 to 72 hrs by CCK8 assay; assay type: functional, cell-based; details: dose 0.37-3.3 µM, time 24-72 hrs

## C=CCn1c(=O)/c(=C/CCCC)[nH]c(=O)/c1=C/c1ccc(OC)cc1
HL-60
  IC50: 900 nM
K562 [1]
  viability at 1.1 µM: 17.3%
K562 [2]
  viability at 1.1 µM: 50%
K562 [3]
  viability at 0.37 µM: 86.2%
U-937 [4]
  Activity: 9.66%
U-937 [5]
  Activity: 16.7%
U-937 [6]
  Activity: 4.09%
U-937 [7]
  Activity: 16%
DU-145
  IC50: 1700 nM
U-937 [8]
  viability at 3.3 µM: 0%
U-937 [9]
  viability at 0.37 µM: 58.7%
U-937 [10]
  Activity: 1.04%
K562 [11]
  Activity: Tde
U-937 [12]
  Activity: 25.8%
U-937 [13]
  Activity: 14.5%
U-937 [14]
  viability at 1.1 µM: 17.4%
K562 [15]
  viability at 1.1 µM: 28.7%
A549
  IC50: 1700 nM
U-937 [16]
  Activity: 1.05%
U-937 [17]
  Activity: 10.3%
U-937 [18]
  Activity: 6.11%
U-937 [19]
  viability at 0.37 µM: 74.9%
K562 [20]
  IC50: 600 nM
U-937 [21]
  Activity: Tde
U-937 [22]
  Activity: 8.32%
K562 [23]
  viability at 0.37 µM: 87.8%
U-937 [24]
  viability at 2 µM: 77.9%
U-937 [25]
  viability at 0.5 µM: 88.4%
U-937 [26]
  viability at 3.3 µM: 0%
U-937 [27]
  IC50: 360 nM
U-937 [28]
  viability at 0.5 µM: 81.4%
U-937 [29]
  Activity: 1.26%
U-937 [30]
  Activity: 10.4%
U-937 [31]
  viability at 1 µM: 73.1%
U-937 [32]
  Activity: Dose-dependent effect
